According to ChEMBL document CHEMBL1122006, “Comparison of quantitative structure-activity relationships of the inhibition of leukemia cells in culture with the inhibition of dihydrofolate reductase from leukemia cells and other cell types” (1982):

Tested on: L5178Y
Assay: Concentration required for inhibition of murine leukemia L5178Y cells
Type: functional, Mus musculus

SMILES	Log 1/C
CC1(C)N=C(N)N=C(N)N1c1cccc(COc2ccccc2)c1	8.2
CC1(C)N=C(N)N=C(N)N1c1cccc(OCCOc2ccccc2)c1	7.34
CC1(C)N=C(N)N=C(N)N1c1cccc(C(O)c2ccccc2)c1 (stereo not drawn)	6.41
CC1(C)N=C(N)N=C(N)N1c1cccc(OCCOc2cccc(C(F)(F)F)c2)c1	7.37
CN(Cc1cnc2nc(N)nc(N)c2n1)c1ccc(C(=O)N[C@@H](CCC(=O)O)C(=O)O)cc1 [METHOTREXATE]	8.89
CC1(C)N=C(N)N=C(N)N1c1cccc(I)c1	8.4
Cc1cccc(OCc2cccc(N3C(N)=NC(N)=NC3(C)C)c2)c1	8.16
CC1(C)N=C(N)N=C(N)N1c1cccc(OCc2ccccc2)c1	7.78
CCCCCCCCCOc1cccc(N2C(N)=NC(N)=NC2(C)C)c1	6.93
CC1(C)N=C(N)N=C(N)N1c1cccc(C(N)=O)c1	6.1
CCOC(=O)c1cccc(N2C(N)=NC(N)=NC2(C)C)c1	8.13
Cc1cccc(N2C(N)=NC(N)=NC2(C)C)c1	8.01
CC(C)c1cccc(OCc2cccc(N3C(N)=NC(N)=NC3(C)C)c2)c1	8.13
CC1(C)N=C(N)N=C(N)N1c1cccc(F)c1	7.94
CCCCCCCCCCCCOc1cccc(N2C(N)=NC(N)=NC2(C)C)c1	6.41
CC1(C)N=C(N)N=C(N)N1c1cccc(Br)c1	8.42
CCc1cccc(OCc2cccc(N3C(N)=NC(N)=NC3(C)C)c2)c1	8.11

SMILES	Log 1/C
CC1(C)N=C(N)N=C(N)N1c1cccc([N+](=O)[O-])c1	7.66
CC(=O)Nc1cccc(OCc2cccc(N3C(N)=NC(N)=NC3(C)C)c2)c1	8.66
CC1(C)N=C(N)N=C(N)N1c1cccc(OCc2ccc(Cl)c(Cl)c2)c1	7.15
CC(C)(C)c1cccc(OCc2cccc(N3C(N)=NC(N)=NC3(C)C)c2)c1	7.3
CC(C)(C)c1cccc(N2C(N)=NC(N)=NC2(C)C)c1	7.59
COc1cccc(OCc2cccc(N3C(N)=NC(N)=NC3(C)C)c2)c1	8.02
CC1(C)N=C(N)N=C(N)N1c1cccc(OCCCCOc2ccccc2)c1	6.97
CC1(C)N=C(N)N=C(N)N1c1cccc(COc2cccc(NC(=N)S)c2)c1	8.08
CC1(C)N=C(N)N=C(N)N1c1ccc(OCc2cccc(C(N)=O)c2)c(Cl)c1	7.53
CC1(C)N=C(N)N=C(N)N1c1cccc(OCCCCOc2cccc(C(F)(F)F)c2)c1	7.14
CC1(C)N=C(N)N=C(N)N1c1cccc(CNc2cc(C(N)=O)cc(C(N)=O)c2)c1	7.01
CC1(C)N=C(N)N=C(N)N1c1cccc(COc2cccc(NC(N)=O)c2)c1	8.18
CC(=O)c1cccc(N2C(N)=NC(N)=NC2(C)C)c1	6.96
CC1(C)N=C(N)N=C(N)N1c1cccc(COc2cccc(C#N)c2)c1	8.09
CC1(C)N=C(N)N=C(N)N1c1cccc(COc2cccc(CO)c2)c1	8.32
CC1(C)N=C(N)N=C(N)N1c1cccc(COc2cccc(Cl)c2)c1	8.1
